From PMC10726354, “Design, Synthesis, and Biological Evaluation of Small-Molecule-Based Radioligands with Improved Pharmacokinetic Properties for Imaging of Programmed Death Ligand 1” (Journal of Medicinal Chemistry, 2023)

Key:
[1] = Metabolite analysis in vivo; parameters: species or system mouse; conditions: 4 h postinjection
[2] = log D7.4 shake flask method, n-octanol/PBS; type: physicochemical; conditions: n-octanol/PBS pH 7.4, shake flask; mean ± SD, three experiments
Procedure: For assessing the lipophilicity of the ^64Cu-labeled PD-L1 radioligands, distribution coefficients (log D7.4 values) were determined using the shake flask method between n-octanol and PBS buffer (pH 7.4).
n-Octanol/water distribution coefficients were determined by the shake-flask method. The experiments for each radioligand was performed in triplicate. 30 μL of the reaction mixture was added to a 1.5 mL Eppendorf tube, which contained 570 μL of PBS (pH 7.4) and 600 μL n-octanol. After shaking at room temperature at 1500 rpm for 5 min, the mixture was centrifugated. An aliquot for each phase was carefully withdrawn, and the count rates were measured using a γ-counter (ISOMED2160 sodium iodide crystal detector). The mean values were calculated, corrected for the background activity, and the log D7.4 value was calculated with following formula [drawing 1]

SMILES	stability in circulation (metabolite analysis) [1]	log D7.4 [2]
Cc1c(COc2cc(OCc3cncc(S(C)(=O)=O)c3)c(CN[C@@H](CS(=O)(=O)O)C(=O)NCCS(=O)(=O)O)cc2Cl)cccc1-c1cccc(OCc2cn(CCCN3CCN(C(=O)[C@H](CS(=O)(=O)O)NC(=O)CC[C@H](C(=O)O)N4CCN(CC(=O)O)CCN(CC(=O)O)CC4)CC3)nn2)c1C.[64Cu+2] [[^64Cu]Cu-3]	overall stability of the compound in circulation	
Cc1c(COc2cc(OCc3cncc(S(C)(=O)=O)c3)c(CN[C@@H](CS(=O)(=O)O)C(=O)NCCP(=O)(O)O)cc2Cl)cccc1-c1cccc(OCc2cn(CCCN3CCN(C(=O)CC[C@H](C(=O)O)N4CCN(CC(=O)O)CCN(CC(=O)O)CC4)CC3)nn2)c1C.[64Cu+2] [[^64Cu]Cu-4]		–3.07 ± 0.02
Cc1c(COc2cc(OCc3cncc(S(C)(=O)=O)c3)c(CN[C@@H](CS(=O)(=O)O)C(=O)NCCP(=O)(O)O)cc2Cl)cccc1-c1cccc(OCc2cn(CCCN3CCN(C(=O)[C@H](CP(=O)(O)O)NC(=O)CC[C@H](C(=O)O)N4CCN(CC(=O)O)CCN(CC(=O)O)CC4)CC3)nn2)c1C.[64Cu+2] [[^64Cu]Cu-6]		–4.28 ± 0.08
